We go through 14 compounds from ChEMBL document CHEMBL1909046, “DrugMatrix in vitro pharmacology data”.

Data set [1] is described as follows: DRUGMATRIX: ATPase, Na+/K+ enzyme inhibition (substrate: ATP). It counts as tissue-based, Sus scrofa, Heart. The note with it: Not Active = under 50% inhibition at 10 µM.
Data set [2] concerns the target T1, Cholecystokinin receptor type A (Homo sapiens, UniProt P32238). Further: in other assays of this panel Not Active means under 50% inhibition at 10 µM.
T1 sequence (P32238 whole entry): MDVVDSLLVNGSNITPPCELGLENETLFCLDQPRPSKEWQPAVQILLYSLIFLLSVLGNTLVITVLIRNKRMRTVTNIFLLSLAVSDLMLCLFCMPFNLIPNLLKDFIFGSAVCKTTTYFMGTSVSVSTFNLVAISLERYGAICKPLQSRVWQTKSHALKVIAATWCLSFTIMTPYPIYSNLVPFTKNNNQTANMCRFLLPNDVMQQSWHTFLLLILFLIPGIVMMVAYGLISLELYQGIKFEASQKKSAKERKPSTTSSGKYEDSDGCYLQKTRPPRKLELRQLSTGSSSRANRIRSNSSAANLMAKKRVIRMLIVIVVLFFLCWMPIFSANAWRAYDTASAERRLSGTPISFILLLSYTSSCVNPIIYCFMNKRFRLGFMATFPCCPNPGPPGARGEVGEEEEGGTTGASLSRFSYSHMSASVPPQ
It counts as cell membranes, Membrane. The note with it: 1321-n1.

The target in data set [3] is Melanocortin receptor 3 (Homo sapiens, UniProt P41968). It counts as cell membranes, HEK293, Membrane. The note with it: hek293. Further: in other assays of this panel Not Active means under 50% inhibition at 10 µM.
The target of data set [4] is T2, Amine oxidase [flavin-containing] A (Homo sapiens, UniProt P21397).
T2 sequence (P21397 whole entry): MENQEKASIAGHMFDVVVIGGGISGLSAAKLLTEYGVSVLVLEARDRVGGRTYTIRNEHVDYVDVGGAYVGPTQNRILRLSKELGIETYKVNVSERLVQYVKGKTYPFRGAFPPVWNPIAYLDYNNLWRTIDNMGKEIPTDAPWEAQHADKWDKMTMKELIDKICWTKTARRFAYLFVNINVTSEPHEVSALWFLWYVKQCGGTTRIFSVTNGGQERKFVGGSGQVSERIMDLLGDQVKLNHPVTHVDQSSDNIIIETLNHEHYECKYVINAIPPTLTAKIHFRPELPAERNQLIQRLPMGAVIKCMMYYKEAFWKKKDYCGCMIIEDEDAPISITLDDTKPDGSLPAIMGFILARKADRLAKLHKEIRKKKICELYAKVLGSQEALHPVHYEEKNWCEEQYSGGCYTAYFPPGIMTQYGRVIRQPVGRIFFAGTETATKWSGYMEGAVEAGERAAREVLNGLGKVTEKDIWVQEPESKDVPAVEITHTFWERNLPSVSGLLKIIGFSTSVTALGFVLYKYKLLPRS
The data set is described as follows: DRUGMATRIX: Monoamine Oxidase MAO-A enzyme inhibition (substrate: Kynuramine). Set-up: species or system BTI-TN-5B1-4. The note with it: bti-tn-5b1-4; Not Active = under 50% inhibition at 10 µM.

Data set [5] is described as follows: DRUGMATRIX: Phosphodiesterase PDE4 enzyme inhibition (substrate: [3H]cAMP + cAMP). The note with it: u-937; Not Active = under 50% inhibition at 10 µM.
Data set [6] deals with T3, Caspase-1 (Homo sapiens, UniProt P29466).
T3 sequence (P29466 whole entry): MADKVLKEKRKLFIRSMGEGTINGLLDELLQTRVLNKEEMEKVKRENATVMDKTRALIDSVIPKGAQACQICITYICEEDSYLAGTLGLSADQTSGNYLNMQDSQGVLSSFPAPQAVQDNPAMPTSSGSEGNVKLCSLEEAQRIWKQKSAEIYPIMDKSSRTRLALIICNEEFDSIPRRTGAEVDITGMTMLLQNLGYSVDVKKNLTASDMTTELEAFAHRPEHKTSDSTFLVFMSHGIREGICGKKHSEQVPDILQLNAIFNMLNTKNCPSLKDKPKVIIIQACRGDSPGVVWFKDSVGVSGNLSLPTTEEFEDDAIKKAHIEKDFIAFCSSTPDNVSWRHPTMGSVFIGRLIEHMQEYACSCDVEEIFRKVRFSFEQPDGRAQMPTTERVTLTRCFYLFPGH
Set-up: species or system Escherichia coli.

The target in data set [7] is Mitogen-activated protein kinase 3 (Homo sapiens, UniProt P27361). As to the kind of experiment: DRUGMATRIX: Protein Serine/Threonine Kinase, ERK1 enzyme inhibition (substrate: Myelin Basic Protein). Set-up: species or system Escherichia coli. The note with it: Not Active = under 50% inhibition at 10 µM.
Data set [8] concerns the target Cytochrome P450 2C9 (Homo sapiens, UniProt P11712). The note with it: bti-tn-5b1-4. Further: in other assays of this panel Not Active means under 50% inhibition at 10 µM.

Chain of Melanocortin receptor 3 (P41968 whole entry): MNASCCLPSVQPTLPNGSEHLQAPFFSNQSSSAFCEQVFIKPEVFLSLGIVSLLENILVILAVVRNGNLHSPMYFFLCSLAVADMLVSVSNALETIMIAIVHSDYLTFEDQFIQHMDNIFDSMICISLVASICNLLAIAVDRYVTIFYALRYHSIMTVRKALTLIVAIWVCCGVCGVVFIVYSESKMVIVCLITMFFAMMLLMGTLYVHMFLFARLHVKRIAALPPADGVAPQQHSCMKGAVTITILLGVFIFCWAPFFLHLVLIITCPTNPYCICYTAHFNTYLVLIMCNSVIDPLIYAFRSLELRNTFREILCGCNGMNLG
Chain of Mitogen-activated protein kinase 3 (P27361 whole entry): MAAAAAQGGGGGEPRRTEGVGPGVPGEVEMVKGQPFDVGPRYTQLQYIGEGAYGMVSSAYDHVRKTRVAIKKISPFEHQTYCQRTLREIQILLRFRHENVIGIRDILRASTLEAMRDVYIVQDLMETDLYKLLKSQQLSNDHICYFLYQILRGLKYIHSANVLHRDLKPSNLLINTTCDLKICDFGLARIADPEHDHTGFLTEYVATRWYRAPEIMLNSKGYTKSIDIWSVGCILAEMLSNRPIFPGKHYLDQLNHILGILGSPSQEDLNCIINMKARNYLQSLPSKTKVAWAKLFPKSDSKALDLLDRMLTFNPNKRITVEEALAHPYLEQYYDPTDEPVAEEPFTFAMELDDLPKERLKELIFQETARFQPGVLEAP
Chain of Cytochrome P450 2C9 (P11712 whole entry): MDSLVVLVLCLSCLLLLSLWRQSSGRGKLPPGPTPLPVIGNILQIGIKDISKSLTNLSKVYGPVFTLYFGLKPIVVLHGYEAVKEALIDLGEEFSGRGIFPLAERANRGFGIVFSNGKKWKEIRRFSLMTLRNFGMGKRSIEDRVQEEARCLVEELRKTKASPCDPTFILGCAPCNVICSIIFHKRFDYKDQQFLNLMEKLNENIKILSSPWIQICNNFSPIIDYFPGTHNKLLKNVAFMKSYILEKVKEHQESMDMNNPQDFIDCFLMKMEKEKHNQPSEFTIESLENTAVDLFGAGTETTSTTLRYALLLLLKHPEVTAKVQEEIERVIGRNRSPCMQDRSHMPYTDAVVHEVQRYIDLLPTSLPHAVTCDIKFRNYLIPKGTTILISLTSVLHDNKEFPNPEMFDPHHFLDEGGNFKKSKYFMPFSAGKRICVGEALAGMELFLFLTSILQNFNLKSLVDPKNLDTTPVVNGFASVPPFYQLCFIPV

For orientation: IC50 means the concentration at which inhibition is half-maximal. Consider `C[C@@H]1CC[C@@]2(OC1)O[C@H]1[C@@H](O)[C@H]3[C@@H]4CC[C@H]5C[C@@H](O[C@@H]6O[C@H](CO)[C@H](O[C@@H]7O[C@H](CO)C(O)[C@H](O[C@@H]8OC[C@@H](O)[C@H](O)[C@H]8O)[C@H]7O[C@@H]7O[C@H](CO)[C@H](O)[C@H](O[C@@H]8O[C@H](CO)[C@@H](O)[C@H](O)[C@H]8O)[C@H]7O)[C@H](O)[C@H]6O)[C@H](O)C[C@]5(C)[C@H]4CC[C@]3(C)[C@H]1[C@@H]2C` (stereo partly drawn) [DIGITONIN], for which the IC50 result in data set [1], in data set [2], in data set [3], in data set [4], in data set [5] and in data set [6] was “Not Active” in each case. For the same compound, the IC50 entry in data set [7] and in data set [8] was “Not Active” each time. Moreover, the Ki entry in data set [1], in data set [5] and in data set [8] was “Not Active” in each case.
In the case of `OC(CCCN1CCCCC1)(c1ccccc1)c1ccccc1` [DIPHENIDOL], the IC50 entry in data set [1], in data set [2], in data set [3], in data set [4], in data set [5] and in data set [6] was “Not Active” throughout. The concentration for half-maximal inhibition (IC50) result in data set [7] and in data set [8] was “Not Active” each time. The Ki result in data set [1], in data set [5] and in data set [8] was “Not Active” each time.
Take `C[C@H]1O[C@@H](n2cc(F)c(=O)[nH]c2=O)[C@H](O)[C@@H]1O` [DOXIFLURIDINE]: the IC50 result in data set [1], in data set [2], in data set [3], in data set [4], in data set [5] and in data set [6] was “Not Active” each time. Further, the IC50 result in data set [7] and in data set [8] was “Not Active” each time. In addition, the Ki result in data set [1], in data set [5] and in data set [8] was “Not Active” throughout.
Take `Cn1c(=O)c2c(ncn2CC(O)CO)n(C)c1=O` (stereo not drawn) [DYPHYLLINE]: the IC50 entry in data set [1], in data set [2], in data set [3], in data set [4], in data set [5] and in data set [6] was “Not Active” throughout. Besides, the IC50 result in data set [7] and in data set [8] was “Not Active” each time. For the same compound, the Ki result in data set [1], in data set [5] and in data set [8] was “Not Active” in each case.
Consider `CC[C@H]1CN2CCc3cc(OC)c(OC)cc3[C@@H]2C[C@@H]1C[C@H]1NCCc2cc(OC)c(OC)cc21` [EMETINE], for which the 50% inhibitory concentration (IC50) result in data set [1], in data set [2], in data set [3], in data set [4], in data set [5] and in data set [6] was “Not Active” each time. The half-inhibitory concentration (IC50) entry in data set [7] and in data set [8] was “Not Active” each time. The Ki result in data set [1], in data set [5] and in data set [8] was “Not Active” throughout.
Take `COC(=O)CCc1ccc(OCC(O)CNC(C)C)cc1` (stereo not drawn) [ESMOLOL]: the IC50 result in data set [1], in data set [2], in data set [3], in data set [4], in data set [5] and in data set [6] was “Not Active” each time. Besides, the concentration for half-maximal inhibition (IC50) entry in data set [7] and in data set [8] was “Not Active” in each case. Besides, the Ki entry in data set [1], in data set [5] and in data set [8] was “Not Active” each time.
Turning to `CCC1(C)CC(=O)NC1=O` (stereo not drawn) [ETHOSUXIMIDE], the 50% inhibitory concentration (IC50) result in data set [1], in data set [2], in data set [3], in data set [4], in data set [5] and in data set [6] was “Not Active” throughout. Further, the concentration for half-maximal inhibition (IC50) result in data set [7] and in data set [8] was “Not Active” throughout. Moreover, the Ki entry in data set [1], in data set [5] and in data set [8] was “Not Active” throughout.
As for `C=CCc1ccc(O)c(OC)c1` [EUGENOL], the half-maximal inhibitory concentration (IC50) result in data set [1], in data set [2], in data set [3], in data set [4], in data set [5] and in data set [6] was “Not Active” each time. For the same compound, the half-inhibitory concentration (IC50) entry in data set [7] and in data set [8] was “Not Active” each time. Moreover, the Ki result in data set [1], in data set [5] and in data set [8] was “Not Active” throughout.
Take `CC(C(=O)O)c1cccc(Oc2ccccc2)c1` (stereo not drawn) [FENOPROFEN]: the IC50 result in data set [1], in data set [2], in data set [3], in data set [4], in data set [5] and in data set [6] was “Not Active” throughout. For the same compound, the 50% inhibitory concentration (IC50) result in data set [7] and in data set [8] was “Not Active” each time. Also, the Ki result in data set [1], in data set [5] and in data set [8] was “Not Active” throughout.
As for `Nc1ccn([C@@H]2O[C@H](CO)[C@@H](O)C2(F)F)c(=O)n1` [GEMCITABINE], the IC50 entry in data set [1], in data set [2], in data set [3], in data set [4], in data set [5] and in data set [6] was “Not Active” in each case. The half-maximal inhibitory concentration (IC50) entry in data set [7] and in data set [8] was “Not Active” throughout. Further, the Ki entry in data set [1], in data set [5] and in data set [8] was “Not Active” throughout.
As for `N=C(N)NC(=O)Cc1c(Cl)cccc1Cl` [GUANFACINE], the IC50 entry in data set [1], in data set [2], in data set [3], in data set [4], in data set [5] and in data set [6] was “Not Active” in each case. Moreover, the IC50 result in data set [7] and in data set [8] was “Not Active” throughout. Moreover, the Ki entry in data set [1], in data set [5] and in data set [8] was “Not Active” throughout.
Take `Oc1c(Cl)cc(Cl)c(Cl)c1Cc1c(O)c(Cl)cc(Cl)c1Cl` [HEXACHLOROPHENE]: the 50% inhibitory concentration (IC50) is 6.13 µM in data set [1] (read-out: IC50); “Not Active” in data set [2]; “Not Active” in data set [3]; “Not Active” in data set [4]; “Not Active” in data set [5]; “Not Active” in data set [6]. Besides, the figures for the IC50 in data set [7] (read-out: IC50) and in data set [8] were 2.48 µM and “Not Active”, respectively. Also, the Ki result in data set [5] and in data set [8] was “Not Active” in each case.
`NNc1nncc2ccccc12` [HYDRALAZINE]: the IC50 result in data set [1], in data set [2], in data set [3], in data set [4], in data set [5] and in data set [6] was “Not Active” throughout. The IC50 entry in data set [7] and in data set [8] was “Not Active” each time. In addition, the Ki entry in data set [1], in data set [5] and in data set [8] was “Not Active” in each case.
With `CC(C)NNC(=O)c1ccncc1` [IPRONIAZID], the half-maximal inhibitory concentration (IC50) result in data set [1], in data set [2], in data set [3], in data set [4], in data set [5] and in data set [6] was “Not Active” each time. Besides, the IC50 entry in data set [7] and in data set [8] was “Not Active” in each case. Besides, the Ki result in data set [1], in data set [5] and in data set [8] was “Not Active” throughout.
